Measurements taken from paper PMC6896740, “Safety, tolerability, pharmacokinetics, and pharmacodynamics of PF-06650833, a selective interleukin-1 receptor-associated kinase 4 (IRAK4) inhibitor, in single and multiple ascending dose randomized phase 1 studies in healthy subjects” (Arthritis Research & Therapy, 2019).
Where two headings read alike, the source gives them in different places.

Experiment: Study 2 (MAD) plasma and urine pharmacokinetics
Assay type: in vivo, human
Conditions: for AUC: read-out: AUCtau, geometric mean (%CV); for Cmax: read-out: Cmax, geometric mean (%CV); for Tmax: read-out: Tmax, median (range)
Description: Subjects were enrolled sequentially into seven cohorts. Within each cohort, eight subjects and two subjects were randomized to receive PF-06650833 and placebo, respectively. Doses for all cohorts were administered after a standard (not high-fat) meal. Multiple dosing regimens (once daily [QD] 24 h apart, twice daily [BID] 12 h apart, three times per day [TID] 8 h apart, and four times per day [QID] 6 h apart) were used to provide required total daily doses. In the final dosing scheme, multiple oral doses of PF-06650833 IR suspension formulations at 25, 100, 250, and 750 mg BID and 1000 mg QID were administered in cohorts 1–5. PF-06650833 IR 330 mg TID (cohort 6) and an MR tablet at a dose of 300 mg QD (cohort 7) were also evaluated (see Fig. 1b for final dosing scheme).
For both studies, samples of blood (and urine in study 2) were taken for evaluation of PK/PD parameters (see Additional file 1: Supplemental Methods). PK samples were obtained at the nominal time relative to dosing (± 10%). Plasma and urine samples were analyzed using validated, sensitive, and specific liquid chromatography tandem mass spectrometric methods (at Pfizer Inc., Groton, CT, USA, for study 1 and at Worldwide Pharmacokinetics, Dynamics and Metabolism, Cambridge, MA, USA, for study 2). The lower limit of quantification for PF-06650833 in plasma was 0.0500 ng/mL. The lower limit of quantification for PF-06650833 in urine was 1.00 ng/mL. Serum samples were also analyzed for hsCRP, and plasma samples were analyzed for 4β-hydroxycholesterol and cholesterol.
PK parameters were calculated using non-compartmental analysis of concentration-time data. For study 1 only, data from cohort 1 (period 4 [IR 30 mg] versus period 5 [IR 30 mg + food]) and cohort 3 (period 2 [MR 30 mg] versus period 3 [MR 30 mg + food]) were used to estimate the effect of food intake. Cmax and AUC were calculated for each subject and treatment, with and without food, after which a within-subject difference could be found between fed (high-fat meal) and fasted doses. Analysis of covariance was used to model these within-subject differences and to calculate 95% confidence intervals (CIs) for the differences for each dose (IR 30 mg and MR 30 mg). For study 2 only, the amounts of PF-06650833 in urine and renal clearance were listed and summarized descriptively. As part of the routine safety laboratory monitoring, the presence of any atypical crystals in urine specimens was semi-quantitatively assessed microscopically by typical histopathologic methods and scored as numbers of crystals per high power field (hpf); higher abundance (moderate or many) was defined as ≥ 15/hpf. No formal interim analyses were conducted.
22 In Study 2, pre-dose blood samples were collected for PK analysis on days 1, 2, 4, 7, 10, and
23 14. Post-dose samples were collected for PK analysis on days 1 and 14 at 0.5, 1, 2, 4, 6, 8, 10,
24 12, and 16 hours post-dose; on day 7 at 1, 2, 4, 6, 8, and 12 hours post-dose; and on days 15,
27 hours post-dose. […]
32 Blood samples (2 mL, to obtain ≥0.5 mL plasma) were collected in K2EDTA tubes
33 (dipotassium ethylenediaminetetraacetic acid) and centrifuged at ~1700 x g for 10 minutes at
34 4 °C, with plasma then stored in polypropylene tubes at -70 °C within 1 hour of collection.
35 Plasma samples were analyzed using a validated, sensitive , and specific liquid
36 chromatography tandem mass spectrometric method (LC -MS; at Pfizer Inc, Groton, CT, USA
37 for Study 1; and at Worldwide Pharmaco kinetics, Dynamics, and Metabolism, Cambridge,
38 MA, USA for Study 2). The lower limit of quantification (LLOQ) for PF-06650833 in plasma
39 was 0.0500 ng/mL. Between-day assay accuracy values were also calculated (not shown).
40 In Study 2 only, urine samples we re collected in aliquots pre-dose. Cumulative 0–12-hour
41 and 12–24-hour urine samples were also collected as follows: from day 1 after morning
42 dosing to day 2 before morning dosing (and before breakfast) for cohorts 6 –8 only; and from […]

[1] = IR 25 mg BID, day 14, fed (standard meal)
[2] = IR 100 mg BID, day 14, fed (standard meal)
[3] = IR 250 mg BID, day 14, fed (standard meal)
[4] = IR 330 mg TID, day 14, fed (standard meal)
[5] = IR 750 mg BID, day 14, fed (standard meal)
[6] = MR 300 mg QD, day 14, fed (standard meal)
[7] = human, plasma, oral, 25 mg, IR 25 mg BID, day 1, fed (standard meal)
[8] = human, plasma, oral, 25 mg, IR 25 mg BID, day 14, fed (standard meal)
[9] = human, plasma, oral, 100 mg, IR 100 mg BID, day 1, fed (standard meal)
[10] = human, plasma, oral, 100 mg, IR 100 mg BID, day 14, fed (standard meal)
[11] = human, plasma, oral, 250 mg, IR 250 mg BID, day 1, fed (standard meal)
[12] = human, plasma, oral, 250 mg, IR 250 mg BID, day 14, fed (standard meal)
[13] = human, plasma, oral, 300 mg, MR 300 mg QD, day 1, fed (standard meal)
[14] = human, plasma, oral, 300 mg, MR 300 mg QD, day 14, fed (standard meal)
[15] = human, plasma, oral, 330 mg, IR 330 mg TID, day 1, fed (standard meal)
[16] = human, plasma, oral, 330 mg, IR 330 mg TID, day 14, fed (standard meal)
[17] = human, plasma, oral, 750 mg, IR 750 mg BID, day 1, fed (standard meal)
[18] = human, plasma, oral, 750 mg, IR 750 mg BID, day 14, fed (standard meal)
[19] = human, plasma, oral, 1000 mg, IR 1000 mg QID, day 1, fed (standard meal)

CC[C@@H]1[C@H](F)C(=O)N[C@@H]1COc1nccc2cc(C(N)=O)c(OC)cc12 [PF-06650833, 1-{[(2S,3S,4S)-3-Ethyl-4-fluoro-5-oxopyrrolidin-2-yl]methoxy}-7-methoxyisoquinoline-6-carboxamide]
Tmax, median (range) (IR 25 mg BID, day 1, fed (standard meal)): 2.03 (1.00–4.00) h
Ae24% (drug recovered unchanged in urine up to 24 h), geometric mean (%CV) [1]: 0.7288 (27) %
CL/F, geometric mean (%CV) [1]: 122.4 (26) L/h
Cav, geometric mean (%CV) [1]: 17.03 (26) ng/mL
Cmin, geometric mean (%CV) [1]: 4.064 (46) ng/mL
PTF (peak-trough fluctuation), geometric mean (%CV) [1]: 1.868 (21)
Rac (observed accumulation ratio), geometric mean (%CV) [1]: 1.250 (19)
Ae24% (drug recovered unchanged in urine up to 24 h), geometric mean (%CV) [2]: 0.9414 (29) %
CL/F, geometric mean (%CV) [2]: 128.9 (16) L/h
Cav, geometric mean (%CV) [2]: 64.72 (16) ng/mL
Cmin, geometric mean (%CV) [2]: 14.13 (40) ng/mL
PTF (peak-trough fluctuation), geometric mean (%CV) [2]: 1.740 (16)
Rac (observed accumulation ratio), geometric mean (%CV) [2]: 1.373 (23)
Ae24% (drug recovered unchanged in urine up to 24 h), geometric mean (%CV) [3]: 0.4822 (53) %
CL/F, geometric mean (%CV) [3]: 183.7 (39) L/h
Cav, geometric mean (%CV) [3]: 113.3 (39) ng/mL
Cmin, geometric mean (%CV) [3]: 20.07 (76) ng/mL
PTF (peak-trough fluctuation), geometric mean (%CV) [3]: 1.911 (14)
Rac (observed accumulation ratio), geometric mean (%CV) [3]: 1.009 (13)
Ae24% (drug recovered unchanged in urine up to 24 h), geometric mean (%CV) [4]: 0.6372 (34) %
CL/F, geometric mean (%CV) [4]: 206.1 (28) L/h
Cav, geometric mean (%CV) [4]: 200.1 (28) ng/mL
Cmin, geometric mean (%CV) [4]: 51.48 (68) ng/mL
PTF (peak-trough fluctuation), geometric mean (%CV) [4]: 1.307 (18)
Rac (observed accumulation ratio), geometric mean (%CV) [4]: 1.068 (26)
Ae24% (drug recovered unchanged in urine up to 24 h), geometric mean (%CV) [5]: 0.4885 (24) %
CL/F, geometric mean (%CV) [5]: 302.9 (24) L/h
CLr (renal clearance), geometric mean (%CV) [5]: 23.14 (19) mL/min
Cav, geometric mean (%CV) [5]: 206.3 (24) ng/mL
Cmin, geometric mean (%CV) [5]: 33.07 (50) ng/mL
PTF (peak-trough fluctuation), geometric mean (%CV) [5]: 1.868 (12)
Rac (observed accumulation ratio), geometric mean (%CV) [5]: 0.9377 (32)
Ae24% (drug recovered unchanged in urine up to 24 h), geometric mean (%CV) [6]: 0.300 (70) %
CL/F, geometric mean (%CV) [6]: 308.0 (65) L/h
Cav, geometric mean (%CV) [6]: 40.62 (65) ng/mL
Cmin, geometric mean (%CV) [6]: 6.471 (55) ng/mL
PTF (peak-trough fluctuation), geometric mean (%CV) [6]: 3.383 (37)
Rac (observed accumulation ratio), geometric mean (%CV) [6]: 0.8985 (24)
Dose recovered unchanged in urine (all dose groups): Less than 1%
Steady state reached by (all dose groups, based on Cmin): ≤ 4 days
AUC [7]: 0.164 µg·h/mL
Cmax [7]: 0.03 µg/mL
Tmax [7]: 2 h
AUC [8]: 0.204 µg·h/mL
Cmax [8]: 0.0362 µg/mL
Tmax [8]: 2 h
AUC [9]: 0.566 µg·h/mL
Cmax [9]: 0.102 µg/mL
Tmax [9]: 2.03 h
AUC [10]: 0.776 µg·h/mL
Cmax [10]: 0.128 µg/mL
Tmax [10]: 2.02 h
AUC [11]: 1.35 µg·h/mL
Cmax [11]: 0.226 µg/mL
Tmax [11]: 4 h
AUC [12]: 1.36 µg·h/mL
Cmax [12]: 0.239 µg/mL
Tmax [12]: 2.02 h
AUC [13]: 1.15 µg·h/mL
Cmax [13]: 0.149 µg/mL
Tmax [13]: 4 h
AUC [14]: 0.975 µg·h/mL
Cmax [14]: 0.147 µg/mL
Tmax [14]: 4 h
AUC [15]: 1.5 µg·h/mL
Cmax [15]: 0.309 µg/mL
Tmax [15]: 2.03 h
AUC [16]: 1.6 µg·h/mL
Cmax [16]: 0.318 µg/mL
Tmax [16]: 2 h
AUC [17]: 2.58 µg·h/mL
Cmax [17]: 0.47 µg/mL
Tmax [17]: 3.12 h
AUC [18]: 2.48 µg·h/mL
Cmax [18]: 0.421 µg/mL
Tmax [18]: 2 h
AUC [19]: 2.01 µg·h/mL
Cmax [19]: 0.517 µg/mL
Tmax [19]: 4 h
Tmax at 1 day (human, plasma, oral, day 1, range across IR 25 to 1000 mg, standard meal, read-out: Median Tmax): 2 to 4 h
Tmax at 14 day (human, plasma, oral, day 14, IR formulations, standard meal, read-out: Median Tmax): 2 h
half-life (human, plasma, oral, range for IR 750 mg BID, IR 330 mg TID, MR 300 mg QD, read-out: Mean half-life at steady state): 25.4 to 31.4 h
Vd/F (human, plasma, oral, IR 25 mg BID, day 14, fed (standard meal), read-out: Vz/F, geometric mean (%CV)): 9650 L
Vd/F (human, plasma, oral, IR 100 mg BID, day 14, fed (standard meal), read-out: Vz/F, geometric mean (%CV)): 8060 L
Vd/F (human, plasma, oral, IR 250 mg BID, day 14, fed (standard meal), read-out: Vz/F, geometric mean (%CV)): 10200 L
Vd/F (human, plasma, oral, IR 330 mg TID, day 14, fed (standard meal), read-out: Vz/F, geometric mean (%CV)): 10100 L
Vd/F (human, plasma, oral, IR 750 mg BID, day 14, fed (standard meal), read-out: Vz/F, geometric mean (%CV)): 13200 L
Vd/F at 14 day (human, plasma, oral, MR 300 mg QD, day 14, fed (standard meal), read-out: Vz/F, geometric mean (%CV)): 11600 L
Vd at 14 day (human, plasma, oral, range across all dosages, day 14, read-out: Mean volume of distribution): 8060 to 13200 L
CL renal (human, urine and plasma, oral, 300 mg, MR 300 mg QD, day 14, fed (standard meal), read-out: CLr (renal clearance), geometric mean (%CV)): 15.4 mL/min
CL renal (human, urine and plasma, oral, 330 mg, IR 330 mg TID, day 14, fed (standard meal), read-out: CLr (renal clearance), geometric mean (%CV)): 18.8 mL/min
CL renal (human, urine and plasma, oral, range for IR < 750 mg and MR 300 mg, read-out: Renal clearance): 14 to 23 mL/min
CL renal at 14 day (human, urine, oral, 25 mg, IR 25 mg BID, day 14, fed (standard meal), read-out: CLr (renal clearance), geometric mean (%CV)): 13.6 mL/min
CL renal at 14 day (human, urine, oral, 100 mg, IR 100 mg BID, day 14, fed (standard meal), read-out: CLr (renal clearance), geometric mean (%CV)): 18.5 mL/min
CL renal at 14 day (human, urine, oral, 250 mg, IR 250 mg BID, day 14, fed (standard meal), read-out: CLr (renal clearance), geometric mean (%CV)): 13.9 mL/min
CL renal (human, urine, oral, 750 mg, IR 750 mg BID, day 14, fed (standard meal), read-out: CLr (renal clearance), geometric mean (%CV)): 23 mL/min
CL renal (human, urine, oral, range for IR 25 mg BID, IR 330 mg TID and MR 300 mg QD, read-out: Renal clearance): 14 to 19 mL/min
